For assay [1], the system named is 451 kinases. The assay is described as follows: Kinome profiling, count of kinases inhibited in the whole panel. The format is binding. Particulars: substantially defined as over 36% inhibition at 1 uM.
The test system of assay [2] is fly model of AD. The settings on record: widely-used fly model of AD; cited from earlier work.
Assay [3] has as its system mouse model of HD. The settings on record: cited from earlier work.
The target of assay [4] is GSK3β (Homo sapiens, UniProt P49841). The settings on record: kinome profiling studies; cited from earlier work.
Sequence of GSK3β (P49841 whole entry): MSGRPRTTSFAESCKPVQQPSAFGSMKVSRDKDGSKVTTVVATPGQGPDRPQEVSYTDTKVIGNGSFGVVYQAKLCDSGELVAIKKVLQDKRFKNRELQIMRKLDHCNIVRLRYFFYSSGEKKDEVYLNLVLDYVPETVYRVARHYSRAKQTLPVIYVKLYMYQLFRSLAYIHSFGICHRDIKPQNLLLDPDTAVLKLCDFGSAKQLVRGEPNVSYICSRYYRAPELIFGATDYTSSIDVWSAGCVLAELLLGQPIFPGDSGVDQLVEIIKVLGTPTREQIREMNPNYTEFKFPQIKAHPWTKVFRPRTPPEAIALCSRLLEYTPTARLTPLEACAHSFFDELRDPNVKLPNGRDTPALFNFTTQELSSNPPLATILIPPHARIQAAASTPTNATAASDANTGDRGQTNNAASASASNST
Assay [5] has as its system panel of 20 kinases. Particulars: 500 nM; previous analyses; cited from earlier work.
Assay [6] has as its target cyclin-dependent kinases (CDKs). Particulars: kinome profiling studies; cited from earlier work.
For assay [7], the target named is p38 MAPK. The settings on record: kinome profiling studies; cited from earlier work.
Assay [8] has as its system cell culture models of neurodegeneration. The settings on record: cited from earlier work.

The values below come from patent publication US20210353631A1, “1,4-Benzoxazines for the Treatment of Cancers and Other Neurodegenerative Diseases” (Neugeneron LLC, priority 2020, published 2021).

As for `O=C1Nc2ccc(I)cc2/C1=C/c1cc(Br)c(O)c(Br)c1` [GW5074, reference compound], the “kinases inhibited substantially of the 451 kinases tested” value in assay [1] turned out to be 21.
Consider `Nc1ccc2c(c1)NC(=O)/C(=C/c1cc(Br)c(O)c(Br)c1)O2` [HSB-13], for which the protection entry in assay [2] is “protective”. The behavioral performance entry in assay [3] was “improved behavioral performance”. The neurodegeneration entry in assay [3] was “prevented neurodegeneration”. Besides, the “kinase inhibition (in words)” value in assay [4], in assay [6] and in assay [7] was “most inhibited” throughout. The “kinases inhibited out of a panel of 20 kinases” value in assay [5] is listed as 3. In addition, the “protection against neuronal loss” value in assay [8] is listed as “protective”.
